Patent US20140066303A1, “COMPOSITIONS AND METHODS FOR IMPROVING THE COMPATIBILITY OF WATER SOLUBLE HERBICIDE SALTS” (DOW AGROSCIENCES LLC, priority 2012, published 2014)

Columns and labels:
Format in all cases: physicochemical
[1] = Critical Crystallization Concentration (CCC) of 2,4-D DMA in spray mixtures with glyphosate potassium salt; conditions: 2,4-D DMA + Roundup PowerMax 1:1 AE; no SAC, control sample; 342 ppm hardness water; 24 h ambient
Text: (§1) Alternatively, the relative effectiveness of the surface active compatibilizers described herein at improving the compatibility of the aqueous herbicide solutions described herein can be determined by measuring the Critical Crystallization Concentration (CCC) of the aryloxyalkanoic acid salt, the pyridyloxyalkanoic acid salt, the arylcarboxylic acid salt, or the heteroarylcarboxylic acid salt of an inorganic cation such as, for example, the potassium salt of 2,4-D in a tank mix solution. The CCC of a particular composition can be measured by preparing saturated and over saturated solutions or mixtures of the composition and then measuring the concentration of the particular herbicidal carboxylic acid remaining in solution. […]
(§2) The CCC of 2,4-D compositions were measured using the following method. […] The CCC was determined by measuring the X-intercept of the extrapolated linear function of the crystal weight vs. 2,4-D wt % AE concentration. […] The amounts of 2,4-D and glyphosate salts were added to achieve desired AE concentrations of 2,4-D and glyphosate at 1:1 ratio, and the amount of water was calculated as a balance ingredient to achieve the final mixture volume of 100 ml. • 7. […]

[2] = Critical Crystallization Concentration (CCC) of 2,4-D DMEA in spray mixtures with glyphosate potassium salt; conditions: 2,4-D DMEA + Roundup PowerMax 1:1 AE; no SAC, control sample; 342 ppm water; 24 h ambient
Text: as §1, §2

[3] = On-set pH of crystallization (OSPOC) of aqueous 2,4-D potassium solution, titration with sulfuric acid; conditions: 3% AE w/w 2,4-D K in water; control, no SAC (0.0%); pH lowered with 0.2 N sulfuric acid
Text: Without intending to be bound by theory, the surface active compatibilizers described herein are believed to improve the compatibility of aqueous herbicide solutions comprised of at least one of a water soluble salt of an aryloxyalkanoic acid, a water soluble salt of a pyridyloxyalkanoic acid, a water soluble salt of an arylcarboxylic acid, a water soluble salt of a heteroarylcarboxylic acid and a water soluble salt of glyphosate, a suitable concentration of one or more inorganic cations, and a pH of less than about 6.5 by preventing or inhibiting the crystallization or precipitation of solids. The relative effectiveness of the surface active compatibilizers in preventing the formation of these solids can be estimated by measuring the on-set pH of crystallization (OSPOC) of the solids in a titration analysis procedure. The OSPOC of a particular composition can be measured, for example, by titrating a solution of an aryloxyalkanoic or a pyridyloxyalkanoic acid salt of an inorganic cation such as, for example, the potassium salt of 2,4-D with a strong acid such as, for example, sulphuric acid until solids or crystals begin forming at a particular pH value (the OSPOC). […]

## CNC.O=C(O)COc1ccc(Cl)cc1Cl [2,4-D DMA, 2,4-D dimethyl ammonium salt]
[1]
  2,4-D CCC: 0.89% AE

## CN(C)CCO.O=C(O)COc1ccc(Cl)cc1Cl [2,4-D DMEA, 2,4-D dimethylethanol ammonium salt]
[2]
  2,4-D CCC: 1.04% AE

## O=C([O-])COc1ccc(Cl)cc1Cl.[K+] [2,4-D K, 2,4-D potassium]
[3]
  On-Set pH of Crystallization (OSPOC): 6.16
